Test results: paper PMC12615753, “Glutathione as a taste modulator: molecular mechanisms of interaction with umami and sweet taste receptors” (Food Chemistry: Molecular Sciences, 2025)

Molecular target: T1, hTAS1R1 Q278K/rTAS1R3 (Homo sapiens, UniProt Q7RTX1, Q278K)
T1 construct: UniProtKB number Q7RTX1–1); expressed in transfected cells; host or cells: HEK293T/17 (ATCC CRL-11268)
T1 sequence (Q7RTX1 21-841 Q278K): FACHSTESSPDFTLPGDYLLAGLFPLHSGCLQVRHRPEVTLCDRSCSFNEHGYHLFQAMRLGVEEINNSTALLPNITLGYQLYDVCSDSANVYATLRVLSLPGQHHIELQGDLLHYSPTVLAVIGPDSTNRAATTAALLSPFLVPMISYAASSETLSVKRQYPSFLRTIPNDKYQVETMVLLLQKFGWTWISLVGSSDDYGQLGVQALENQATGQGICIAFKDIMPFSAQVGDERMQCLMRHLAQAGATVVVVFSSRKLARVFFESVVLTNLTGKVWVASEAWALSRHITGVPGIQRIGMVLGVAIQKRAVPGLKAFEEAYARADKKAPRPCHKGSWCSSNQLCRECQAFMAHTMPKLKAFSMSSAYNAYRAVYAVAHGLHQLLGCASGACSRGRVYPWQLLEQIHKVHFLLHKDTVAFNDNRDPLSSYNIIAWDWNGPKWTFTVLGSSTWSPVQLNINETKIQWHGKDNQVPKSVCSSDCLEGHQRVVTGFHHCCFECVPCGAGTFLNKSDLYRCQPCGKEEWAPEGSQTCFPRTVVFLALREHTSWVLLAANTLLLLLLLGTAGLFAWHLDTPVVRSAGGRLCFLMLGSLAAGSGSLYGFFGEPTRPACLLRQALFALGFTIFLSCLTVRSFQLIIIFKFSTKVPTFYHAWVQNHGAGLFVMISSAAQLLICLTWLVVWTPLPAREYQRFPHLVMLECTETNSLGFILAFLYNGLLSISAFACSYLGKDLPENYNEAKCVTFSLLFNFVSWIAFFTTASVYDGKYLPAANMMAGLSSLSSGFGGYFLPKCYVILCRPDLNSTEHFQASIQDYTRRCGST
T1 sequence (Q923K1 21-858 partner): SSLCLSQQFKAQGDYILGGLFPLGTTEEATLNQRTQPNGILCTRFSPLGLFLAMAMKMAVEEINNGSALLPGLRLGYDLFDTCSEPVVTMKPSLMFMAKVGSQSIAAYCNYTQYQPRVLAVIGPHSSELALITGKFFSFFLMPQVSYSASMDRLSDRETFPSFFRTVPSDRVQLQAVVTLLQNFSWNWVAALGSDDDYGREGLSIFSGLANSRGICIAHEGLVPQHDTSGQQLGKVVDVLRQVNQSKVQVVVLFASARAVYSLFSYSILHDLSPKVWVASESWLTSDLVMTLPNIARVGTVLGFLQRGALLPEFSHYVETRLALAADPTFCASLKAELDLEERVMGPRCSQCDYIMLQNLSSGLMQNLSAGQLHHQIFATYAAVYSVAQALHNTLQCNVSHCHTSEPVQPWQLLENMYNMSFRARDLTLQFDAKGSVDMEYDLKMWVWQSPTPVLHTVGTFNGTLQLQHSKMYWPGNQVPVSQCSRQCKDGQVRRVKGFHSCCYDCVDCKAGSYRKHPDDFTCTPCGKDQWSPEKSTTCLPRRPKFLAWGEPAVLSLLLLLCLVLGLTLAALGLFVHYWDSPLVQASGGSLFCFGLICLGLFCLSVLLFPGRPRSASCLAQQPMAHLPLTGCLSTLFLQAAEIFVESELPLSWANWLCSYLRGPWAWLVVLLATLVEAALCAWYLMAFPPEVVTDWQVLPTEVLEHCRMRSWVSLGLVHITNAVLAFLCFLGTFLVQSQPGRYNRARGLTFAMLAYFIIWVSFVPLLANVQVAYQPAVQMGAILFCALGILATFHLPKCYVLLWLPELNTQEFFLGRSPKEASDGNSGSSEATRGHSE
Test: Calcium assay, hTAS1R1 mutant co-expressed with rTAS1R3
Assay type: cell-based, rat

N[C@@H](CCC(=O)N[C@@H](CS)C(=O)NCC(=O)O)C(=O)O [GSH, γ-L-glutamyl-L-cysteinyl-glycine]
EC50: 5.66 ± 0.31 mM
effect of the added compound (1 mM) on the response to L-Glu (Q278K): synergy was observed
response to the agonist alone, vs WT (Q278K): significantly increased the initial amplitude
Max ∆F/F0 (Q278K, GSH): 1.10 ± 0.02
R1 = mutant EC50/WT EC50 (Q278K, GSH): 2.2
